Source: the supplement of paper PMC10307832

What was measured:
Assay in all cases: relative viability (nuclei count vs DMSO), 5 days (fraction); higher = more cells survive
BAM7 + Palbociclib = compound: CCOC1=CC=CC=C1N=NC2=C(NN(C2=O)C3=NC(=CS3)C4=CC=CC=C4)C [BAM7] + CC(=O)c1c(C)c2cnc(Nc3ccc(N4CCNCC4)cn3)nc2n(C2CCCC2)c1=O [Palbociclib] (partner 0.5 µM)
Outline: (§1)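 Relative viability divides the nuclei count in treated wells by that in vehicle wells. Lung cancer cell lines were seeded in 1536-well plates, dosed by pin tool the next day, and fixed and stained after 5 days in one step with final 0.05% Triton X-100, 1% formaldehyde and 1 ug/ml Hoechst. Dosing was a single drug or a fixed anchor-drug dose plus five library-drug doses (not always all listed) in √10 steps, and values are medians of duplicate plates imaged at 4×.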

BAM7 + Navitoclax = compound: CCOC1=CC=CC=C1N=NC2=C(NN(C2=O)C3=NC(=CS3)C4=CC=CC=C4)C [BAM7] + CC1(C)CCC(c2ccc(Cl)cc2)=C(CN2CCN(c3ccc(C(=O)NS(=O)(=O)c4ccc(N[C@H](CCN5CCOCC5)CSc5ccccc5)c(S(=O)(=O)C(F)(F)F)c4)cc3)CC2)C1 [Navitoclax] (partner 0.5 µM)
Outline: as §1

[1] = compound: CCn1c(-c2nonc2N)nc2c(C#CC(C)(C)O)ncc(OC[C@H]3CCCNC3)c21 + C[C@@H](Oc1cc(-c2cnn(C3CCNCC3)c2)cnc1N)c1c(Cl)ccc(F)c1Cl [Crizotinib] (partner 1 µM)
Outline: as §1

[2] = compound: CCn1c(-c2nonc2N)nc2c(C#CC(C)(C)O)ncc(OC[C@H]3CCCNC3)c21 + C[C@]1(O)C[C@@H](c2nc(-c3ccc4ccc(-c5ccccc5)nc4c3)c3c(N)nccn32)C1 [Linsitinib] (partner 1 µM)
Outline: as §1

NCI-H1915
relative viability (BAM7 + Palbociclib; first compound 0.5 µM): 0.598
relative viability (BAM7 + Palbociclib; first compound 5 µM): 0.548
relative viability (BAM7 + Palbociclib; first compound 15.81 µM): 0.516
relative viability (BAM7 + Palbociclib; first compound 50 µM): 0.501
relative viability (BAM7 + Navitoclax; first compound 0.5 µM): 0.756
relative viability (BAM7 + Navitoclax; first compound 5 µM): 0.776
relative viability (BAM7 + Navitoclax; first compound 15.81 µM): 0.803
relative viability (BAM7 + Navitoclax; first compound 50 µM): 0.807
relative viability ([1]; first compound 0.01 µM): 0.909
relative viability ([1]; first compound 0.03162 µM): 0.909
relative viability ([1]; first compound 0.1 µM): 0.809
relative viability ([1]; first compound 0.3162 µM): 0.872
relative viability ([1]; first compound 1 µM): 0.856
relative viability ([2]; first compound 0.01 µM): 1.08
relative viability ([2]; first compound 0.03162 µM): 1.1
relative viability ([2]; first compound 0.1 µM): 1.05
relative viability ([2]; first compound 0.3162 µM): 1.12
relative viability ([2]; first compound 1 µM): 1.08

NCI-H1944
relative viability (BAM7 + Palbociclib; first compound 0.5 µM): 0.365
relative viability (BAM7 + Palbociclib; first compound 5 µM): 0.366
relative viability (BAM7 + Palbociclib; first compound 15.81 µM): 0.281
relative viability (BAM7 + Palbociclib; first compound 50 µM): 0.37
relative viability (BAM7 + Navitoclax; first compound 0.5 µM): 1.07
relative viability (BAM7 + Navitoclax; first compound 5 µM): 1.14
relative viability (BAM7 + Navitoclax; first compound 15.81 µM): 0.875
relative viability (BAM7 + Navitoclax; first compound 50 µM): 0.882
relative viability ([1]; first compound 0.01 µM): 1.07
relative viability ([1]; first compound 0.03162 µM): 1.07
relative viability ([1]; first compound 0.1 µM): 1.02
relative viability ([1]; first compound 0.3162 µM): 1.07
relative viability ([1]; first compound 1 µM): 1.09
relative viability ([2]; first compound 0.01 µM): 1.15
relative viability ([2]; first compound 0.03162 µM): 1.17
relative viability ([2]; first compound 0.1 µM): 1.21
relative viability ([2]; first compound 0.3162 µM): 1.21
relative viability ([2]; first compound 1 µM): 1.21

NCI-H1975
relative viability (BAM7 + Palbociclib; first compound 0.5 µM): 0.565
relative viability (BAM7 + Palbociclib; first compound 5 µM): 0.555
relative viability (BAM7 + Palbociclib; first compound 15.81 µM): 0.519
relative viability (BAM7 + Palbociclib; first compound 50 µM): 0.652
relative viability (BAM7 + Navitoclax; first compound 0.5 µM): 0.9
relative viability (BAM7 + Navitoclax; first compound 5 µM): 1.1
relative viability (BAM7 + Navitoclax; first compound 50 µM): 0.862
relative viability ([1]; first compound 0.01 µM): 0.945
relative viability ([1]; first compound 0.03162 µM): 1.08
relative viability ([1]; first compound 0.1 µM): 0.893
relative viability ([1]; first compound 0.3162 µM): 1.03
relative viability ([1]; first compound 1 µM): 0.98
relative viability ([2]; first compound 0.01 µM): 0.887
relative viability ([2]; first compound 0.03162 µM): 1.02
relative viability ([2]; first compound 0.1 µM): 0.913
relative viability ([2]; first compound 0.3162 µM): 0.791
relative viability ([2]; first compound 1 µM): 0.86

NCI-H1993
relative viability (BAM7 + Palbociclib; first compound 0.5 µM): 0.502
relative viability (BAM7 + Palbociclib; first compound 5 µM): 0.539
relative viability (BAM7 + Palbociclib; first compound 15.81 µM): 0.453
relative viability (BAM7 + Palbociclib; first compound 50 µM): 0.478
relative viability (BAM7 + Navitoclax; first compound 0.5 µM): 0.819
relative viability (BAM7 + Navitoclax; first compound 5 µM): 0.899
relative viability (BAM7 + Navitoclax; first compound 15.81 µM): 0.739
relative viability (BAM7 + Navitoclax; first compound 50 µM): 0.813
relative viability ([1]; first compound 0.01 µM): 0.856
relative viability ([1]; first compound 0.03162 µM): 0.877
relative viability ([1]; first compound 0.1 µM): 0.92
relative viability ([1]; first compound 0.3162 µM): 0.775
relative viability ([1]; first compound 1 µM): 0.887
relative viability ([2]; first compound 0.01 µM): 0.774
relative viability ([2]; first compound 0.03162 µM): 0.736
relative viability ([2]; first compound 0.1 µM): 0.758
relative viability ([2]; first compound 0.3162 µM): 0.731
relative viability ([2]; first compound 1 µM): 0.767

NCI-H2009
relative viability (BAM7 + Palbociclib; first compound 0.5 µM): 0.189
relative viability (BAM7 + Palbociclib; first compound 5 µM): 0.189
relative viability (BAM7 + Palbociclib; first compound 15.81 µM): 0.228
relative viability (BAM7 + Palbociclib; first compound 50 µM): 0.29
relative viability (BAM7 + Navitoclax; first compound 0.5 µM): 1.25
relative viability (BAM7 + Navitoclax; first compound 5 µM): 1.17
relative viability (BAM7 + Navitoclax; first compound 15.81 µM): 1.15
relative viability (BAM7 + Navitoclax; first compound 50 µM): 1.17
relative viability ([1]; first compound 0.01 µM): 0.941
relative viability ([1]; first compound 0.03162 µM): 1.03
relative viability ([1]; first compound 0.1 µM): 1.09
relative viability ([1]; first compound 0.3162 µM): 1.02
relative viability ([1]; first compound 1 µM): 1.07
relative viability ([2]; first compound 0.01 µM): 1.15
relative viability ([2]; first compound 0.03162 µM): 1.19
relative viability ([2]; first compound 0.1 µM): 1.27
relative viability ([2]; first compound 0.3162 µM): 1.1
relative viability ([2]; first compound 1 µM): 1.19

NCI-H2023
relative viability (BAM7 + Palbociclib; first compound 0.5 µM): 0.375
relative viability (BAM7 + Palbociclib; first compound 5 µM): 0.316
relative viability (BAM7 + Palbociclib; first compound 15.81 µM): 0.293
relative viability (BAM7 + Palbociclib; first compound 50 µM): 0.327
relative viability (BAM7 + Navitoclax; first compound 0.5 µM): 1.04
relative viability (BAM7 + Navitoclax; first compound 5 µM): 0.888
relative viability (BAM7 + Navitoclax; first compound 15.81 µM): 0.886
relative viability (BAM7 + Navitoclax; first compound 50 µM): 0.982
relative viability ([1]; first compound 0.01 µM): 0.683
relative viability ([1]; first compound 0.03162 µM): 0.67
relative viability ([1]; first compound 0.1 µM): 0.557
relative viability ([1]; first compound 0.3162 µM): 0.583
relative viability ([1]; first compound 1 µM): 0.549
relative viability ([2]; first compound 0.01 µM): 0.683
relative viability ([2]; first compound 0.03162 µM): 0.664
relative viability ([2]; first compound 0.1 µM): 0.708
relative viability ([2]; first compound 0.3162 µM): 0.446
relative viability ([2]; first compound 1 µM): 0.569

NCI-H2085
relative viability (BAM7 + Palbociclib; first compound 0.5 µM): 0.462
relative viability (BAM7 + Palbociclib; first compound 5 µM): 0.483
relative viability (BAM7 + Palbociclib; first compound 15.81 µM): 0.446
relative viability (BAM7 + Palbociclib; first compound 50 µM): 0.45
relative viability (BAM7 + Navitoclax; first compound 0.5 µM): 1.13
relative viability (BAM7 + Navitoclax; first compound 5 µM): 1.24
relative viability (BAM7 + Navitoclax; first compound 15.81 µM): 1.02
relative viability (BAM7 + Navitoclax; first compound 50 µM): 1.21
relative viability ([1]; first compound 0.01 µM): 0.882
relative viability ([1]; first compound 0.03162 µM): 0.882
relative viability ([1]; first compound 0.1 µM): 0.802
relative viability ([1]; first compound 0.3162 µM): 0.817
relative viability ([1]; first compound 1 µM): 0.749
relative viability ([2]; first compound 0.01 µM): 0.843
relative viability ([2]; first compound 0.03162 µM): 0.91
relative viability ([2]; first compound 0.1 µM): 0.804
relative viability ([2]; first compound 0.3162 µM): 0.879
relative viability ([2]; first compound 1 µM): 0.921

NCI-H2087
relative viability (BAM7 + Palbociclib; first compound 0.5 µM): 0.272
relative viability (BAM7 + Palbociclib; first compound 5 µM): 0.255
relative viability (BAM7 + Palbociclib; first compound 15.81 µM): 0.229
relative viability (BAM7 + Palbociclib; first compound 50 µM): 0.292
relative viability (BAM7 + Navitoclax; first compound 0.5 µM): 0.92
relative viability (BAM7 + Navitoclax; first compound 5 µM): 1.13
relative viability (BAM7 + Navitoclax; first compound 15.81 µM): 0.942
relative viability (BAM7 + Navitoclax; first compound 50 µM): 1.02
relative viability ([1]; first compound 0.01 µM): 0.729
relative viability ([1]; first compound 0.03162 µM): 0.748
relative viability ([1]; first compound 0.1 µM): 0.942
relative viability ([1]; first compound 0.3162 µM): 0.847
relative viability ([1]; first compound 1 µM): 0.732
relative viability ([2]; first compound 0.01 µM): 0.966
relative viability ([2]; first compound 0.03162 µM): 0.746
relative viability ([2]; first compound 0.1 µM): 0.932
relative viability ([2]; first compound 0.3162 µM): 0.924
relative viability ([2]; first compound 1 µM): 0.838

NCI-H2126
relative viability (BAM7 + Palbociclib; first compound 0.5 µM): 0.334
relative viability (BAM7 + Palbociclib; first compound 5 µM): 0.332
relative viability (BAM7 + Palbociclib; first compound 15.81 µM): 0.345
relative viability (BAM7 + Palbociclib; first compound 50 µM): 0.362
relative viability (BAM7 + Navitoclax; first compound 0.5 µM): 0.841
relative viability (BAM7 + Navitoclax; first compound 5 µM): 0.857
relative viability (BAM7 + Navitoclax; first compound 15.81 µM): 0.86
relative viability (BAM7 + Navitoclax; first compound 50 µM): 0.849
relative viability ([1]; first compound 0.01 µM): 1.01
relative viability ([1]; first compound 0.03162 µM): 1
relative viability ([1]; first compound 0.1 µM): 0.993
relative viability ([1]; first compound 0.3162 µM): 0.974
relative viability ([1]; first compound 1 µM): 1.06
relative viability ([2]; first compound 0.01 µM): 0.751
relative viability ([2]; first compound 0.03162 µM): 0.716
relative viability ([2]; first compound 0.1 µM): 0.695
relative viability ([2]; first compound 0.3162 µM): 0.671
relative viability ([2]; first compound 1 µM): 0.788
